The values that follow are results of earlier work, collected in patent publication US20090306103A1, “PYRIDONECARBOXAMIDE DERIVATIVES USEFUL IN TREATING HYPER-PROLIFERATIVE AND ANGIOGENESIS DISORDERS” (priority 2006, published 2009).

One data set has as its system Bcr-Abl E255K mutant. The conditions noted are these: read-out: IC50 against E255K mutant; biochemical assay.
The subject of data set [1] is Bcr-Abl Imanitib resistant mutations.
The next data set deals with Bcr-Abl. The conditions noted are these: greater potency than Imatinib.

pIC50: −log10 of the molar value.

The pIC50 is the IC50 on a negative log10 scale, so that one unit is a factor of ten. As to `Cc1cn(-c2cc(NC(=O)c3ccc(C)c(Nc4nccc(-c5cccnc5)n4)c3)cc(C(F)(F)F)c2)cn1` [AMN-107], in the data set with Bcr-Abl E255K mutant, the pIC50 is 6.40. The “inhibition of Imanitib resistant mutations” value in data set [1] was “inhib most Imanitib resistant mutations except for T315I”. In the data set on Bcr-Abl, the “potency of Bcr-Abl kinase inhibition relative to Imatinib” value is 20 fold.
